This is an account of results in ChEMBL document CHEMBL1201862, “PubChem BioAssay data set” (2004).

The structures appear in SMILES notation.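 Compound exposure: 48 hours, 5 concentrations, 96-well plates. Abbreviation: GI50, concentration required for 50% inhibition of growth.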 Activity calls are given as the source filed them. Cut-off read from the data, not from the text of the source: active = GI50 up to about 1.1 µM and inactive = higher.

Common to all, as to test: DTP human tumour cell line panel, 48 h
Assay [1] has as its system MOLT-4.
The test system of assay [2] is HOP-62.
The subject of assay [3] is SF-539.
For assay [4], the system named is SK-MEL-5.
Assay [5] has as its system HCT-15.
Assay [6] deals with NCI-H226.
For assay [7], the system named is RXF 393.
The test system of assay [8] is NCI-H23.
The test system of assay [9] is SK-MEL-2.
Assay [10] deals with Malme-3M.
Assay [11] deals with UACC-62.
Assay [12] concerns CCRF-CEM.
Assay [13] concerns NCI-H460.
Assay [14] concerns NCI/ADR-RES.
Assay [15] concerns Hs-578T.
The subject of assay [16] is PC-3.
Assay [17] deals with MDA-N.
In assay [18] the test system is MCF7.

One may read the GI50 as the concentration that inhibits growth by half. For the molecule `O=C(O/N=C1/CCC/C1=C\c1ccccc1)c1ccccc1`, the GI50 in [1] was 27.4 µM (inactive); in assay [2] it was > 100 µM (inactive); in assay [3], > 100 µM (inactive); in assay [4], 44.6 µM (inactive); in assay [5], 59.6 µM; in assay [6], > 100 µM (inactive). The GI50 is > 100 µM (inactive) in assay [7]; > 100 µM (inactive) in [8]; > 100 µM (inactive) in assay [9]; > 100 µM (inactive) in assay [10]; > 100 µM (inactive) in [11]; 48.8 µM (inactive) in assay [12]. Moreover, in assay [13], the GI50 is > 10 µM (inactive).
On to `CCCC(=O)Oc1ccc2c(C)cc(=O)oc2c1OC(=O)CCC`, for which the GI50 is 50 µM (inactive) in assay [1]; 71.3 µM (inactive) in assay [2]; > 100 µM (inactive) in assay [3]; 56 µM (inactive) in assay [4]; 33.2 µM (inactive) in assay [14]; 31.8 µM in assay [5]. The GI50 was 34.8 µM (inactive) in assay [6]; 56.6 µM (inactive) in assay [15]; 59.3 µM (inactive) in [16]; > 100 µM (inactive) in assay [17]; 55.5 µM (inactive) in assay [18]; 48.8 µM (inactive) in [8]. Further, the GI50 is > 100 µM (inactive) in [9], 24.3 µM (inactive) in [10], 60.3 µM (inactive) in assay [11] and 13.9 µM (inactive) in [12].
As to `CCCCCCCCCCCCCCCCCc1nc(C#N)c(N)o1`, the GI50 in assay [1] was 5.06 µM (inactive); in assay [2], > 100 µM (inactive); in assay [4], > 100 µM (inactive); in assay [5], 86.9 µM; in assay [15], 20.8 µM (inactive); in assay [16] it was 24.4 µM (inactive). In addition, the GI50 in assay [17] was > 100 µM (inactive); in assay [18], > 100 µM (inactive); in assay [9], > 100 µM (inactive); in assay [11] it was > 100 µM (inactive); in assay [12], 2.28 µM (inactive).
In the case of `CN(C(=O)C1=CCCCCC1)c1ccccc1I`, the GI50 in assay [1] was 49.3 µM (inactive); in assay [2] it was 63.4 µM (inactive); in assay [4], 23.6 µM (inactive); in assay [14], 25.6 µM (inactive); in [5], 39.6 µM; in [15], 1.27 µM (inactive). Also, the GI50 was 35 µM (inactive) in assay [16]; 35.5 µM (inactive) in assay [17]; 51.5 µM (inactive) in assay [18]; > 100 µM (inactive) in assay [7]; 38.2 µM (inactive) in [8]; 32.4 µM (inactive) in [9]. Further, the GI50 is 33.2 µM (inactive) in assay [11], 41.7 µM (inactive) in assay [12] and 32 µM (inactive) in assay [13].
In the case of `O=C1c2n[nH]nc2C(=O)c2n[nH]nc21`, the GI50 in assay [1] was > 100 µM (inactive); in assay [2], > 100 µM (inactive); in assay [3], > 100 µM (inactive); in assay [4], > 100 µM (inactive); in [14], > 100 µM (inactive); in assay [5], > 100 µM. The GI50 in [6] is > 39.2 µM (inactive); in assay [15] it was > 100 µM (inactive); in [16], > 100 µM (inactive); in assay [17] it was > 100 µM (inactive); in assay [18], > 100 µM (inactive); in [7], > 100 µM (inactive). Further, the GI50 in [8], in [9], in assay [11], in assay [12] and in assay [13] was > 100 µM (inactive) throughout.
Consider `CC/C=C\C/C=C\C/C=C\CCCCCCCC(=O)OCC(O)CO` (stereo not given), for which the GI50 was > 46.2 µM (inactive) in assay [1]; > 100 µM (inactive) in assay [2]; > 100 µM (inactive) in assay [3]; > 59.2 µM (inactive) in assay [4]; > 63.4 µM in [5]; > 100 µM (inactive) in assay [6]. The GI50 is > 100 µM (inactive) in [7]; > 74.5 µM (inactive) in assay [8]; 97.9 µM (inactive) in [9]; > 100 µM (inactive) in assay [10]; > 100 µM (inactive) in assay [11]; > 47.8 µM (inactive) in assay [12]. Besides, the GI50 in [13] was > 69.3 µM (inactive).
